# Data from patent US11231416B2, “Virus-like particle (VLP) based small molecule-protein interaction trap” (VIB VZW, priority 2015, dated 2022).
# Read-outs that look alike come from different tables or passages of the source.
# How the values were obtained:
# ECE1 = biological target: T1, ECE1 (Homo sapiens, UniProt P42892); assay: Viral trapping in VLPs, MS analysis; format: binding
# T1 construct: endogenous in cells; host or cells: HEK293T
# Protocol: (§1) For mass spectrometry, 10^7 HEK293T cells were seeded in five flasks (75 cm^2) and transfected the next day with a total of 15 μg DNA per flask using polyethylene imine reagent. The following DNA quantities were used per flask: 7.5 μg of GAG-eDHFR, 5.4 μg of mock vector and 2.1 μg of a 50/50 mix of pMD2.G and pcDNA3-FLAG-VSV-G. The small molecule fusions were added immediately after transfection to the producing cells at a concentration of 1 μM. The same dilution of dimethyl sulfoxide (DMSO) was added in control experiments to control the effect of this chemical on the cells. The cellular supernatant was harvested after 32 hours and was centrifuged for 3 minutes at 450×g to remove cellular debris. The cleared supernatant was then filtered using 0.45 μm filters (Millipore). A total of 100 μl MyOne™ Streptavidin T1 beads (Life Technologies) pre-loaded with 10 μg ANTI-FLAG® BioM2-Biotin antibody (Sigma-Aldrich®) was used to bind the tagged particles. Particles were allowed to bind for 2 hours by end-over-end rotation. The total supernatant was processed in three consecutive binding steps. Bead-particle complexes were washed once with washing buffer (TWB: 20 mM Tris-HCl pH 7.5, 150 mM NaCl) and were then eluted with FLAG peptide (200 μg/ml in TWB) and lysed by addition of SDS to a final concentration of 0.1%. After 5 minutes, SDS was removed using HiPPR Detergent Removal Spin Columns (Pierce, Thermo Scientific) followed by boiling and overnight digestion with 0.5 μg sequence-grade trypsin (Promega). After acidification (0.1% TFA final), the peptides were separated by nano-LC and directly analyzed with a Q Exactive instrument (Thermo Scientific).
# (§2) For tamoxifen, four biological repeats were performed where the cells were treated with MTX-PEG6-tamoxifen after transfection. The obtained protein lists after viral trapping and MS analysis were challenged with protein lists coming from the four DMSO controls, the 19 control experiments and the lists obtained for the MTX-PEG6-simvastatin and MTX-PEG6-reversine (see below) for a total of 30 samples.
# EI24 = biological target: T2, EI24 (Homo sapiens, UniProt O14681); assay: Viral trapping in VLPs, MS analysis; format: binding; conditions: all proteins (incl. low confidence identifications)
# T2 construct: endogenous in cells; host or cells: HEK293T
# Protocol: as §1, §2
# ESYT1 = biological target: T3, ESYT1 (Homo sapiens, UniProt Q9BSJ8); assay: Viral trapping in VLPs, MS analysis; format: binding
# T3 construct: endogenous in cells; host or cells: HEK293T
# Protocol: as §1, §2
# REEP4 = biological target: T4, REEP4 (Homo sapiens, UniProt Q9H6H4); assay: Viral trapping in VLPs, MS analysis; format: binding
# T4 construct: endogenous in cells; host or cells: HEK293T
# Protocol: as §1, §2
# REEP6 = biological target: T5, REEP6 (Homo sapiens, UniProt Q96HR9); assay: Viral trapping in VLPs, MS analysis; format: binding
# T5 construct: endogenous in cells; host or cells: HEK293T
# Protocol: as §1, §2
# RNF5 = biological target: T6, RNF5 (Homo sapiens, UniProt Q99942); assay: Viral trapping in VLPs, MS analysis; format: binding; conditions: all proteins (incl. low confidence identifications)
# T6 construct: endogenous in cells; host or cells: HEK293T
# Protocol: as §1, §2
# RTN4 = biological target: T7, RTN4 (Homo sapiens, UniProt Q9NQC3); assay: Viral trapping in VLPs, MS analysis; format: binding
# T7 construct: endogenous in cells; host or cells: HEK293T
# Protocol: as §1, §2
# TMPRSS13 = biological target: T8, TMPRSS13 (Homo sapiens, UniProt Q9BYE2); assay: Viral trapping in VLPs, MS analysis; format: binding; conditions: all proteins (incl. low confidence identifications)
# T8 construct: endogenous in cells; host or cells: HEK293T
# Protocol: as §1, §2
# WDR36 = biological target: T9, WDR36 (Homo sapiens, UniProt Q8NI36); assay: Viral trapping in VLPs, MS analysis; format: binding; conditions: all proteins (incl. low confidence identifications)
# T9 construct: endogenous in cells; host or cells: HEK293T
# Protocol: as §1, §2
# C28H10ORF35 = conditions: all proteins (incl. low confidence identifications)
# Protocol: as §1, §2
# FAM62A = test system: FAM62A
# Protocol: as §1, §2
# PRSS3 = conditions: all proteins (incl. low confidence identifications)
# Protocol: as §1, §2
# [1] = all proteins (incl. low confidence identifications)
# [2] = proteins identified with >1 peptide (high confidence)
# T5 sequence (Q96HR9 1-184 isoform Q96HR9-2): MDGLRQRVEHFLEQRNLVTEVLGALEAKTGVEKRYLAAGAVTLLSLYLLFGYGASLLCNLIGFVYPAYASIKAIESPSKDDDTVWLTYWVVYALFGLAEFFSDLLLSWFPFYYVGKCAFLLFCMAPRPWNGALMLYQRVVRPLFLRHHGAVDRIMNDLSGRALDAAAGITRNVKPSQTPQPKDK
# T4 sequence (Q9H6H4 whole entry): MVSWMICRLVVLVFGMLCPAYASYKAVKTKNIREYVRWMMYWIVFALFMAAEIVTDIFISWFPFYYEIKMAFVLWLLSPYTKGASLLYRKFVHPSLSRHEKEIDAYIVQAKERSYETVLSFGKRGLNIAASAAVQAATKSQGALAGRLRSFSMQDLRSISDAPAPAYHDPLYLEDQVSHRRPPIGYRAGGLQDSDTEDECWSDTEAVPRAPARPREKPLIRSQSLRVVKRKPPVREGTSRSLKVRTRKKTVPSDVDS
# T3 sequence (Q9BSJ8 whole entry): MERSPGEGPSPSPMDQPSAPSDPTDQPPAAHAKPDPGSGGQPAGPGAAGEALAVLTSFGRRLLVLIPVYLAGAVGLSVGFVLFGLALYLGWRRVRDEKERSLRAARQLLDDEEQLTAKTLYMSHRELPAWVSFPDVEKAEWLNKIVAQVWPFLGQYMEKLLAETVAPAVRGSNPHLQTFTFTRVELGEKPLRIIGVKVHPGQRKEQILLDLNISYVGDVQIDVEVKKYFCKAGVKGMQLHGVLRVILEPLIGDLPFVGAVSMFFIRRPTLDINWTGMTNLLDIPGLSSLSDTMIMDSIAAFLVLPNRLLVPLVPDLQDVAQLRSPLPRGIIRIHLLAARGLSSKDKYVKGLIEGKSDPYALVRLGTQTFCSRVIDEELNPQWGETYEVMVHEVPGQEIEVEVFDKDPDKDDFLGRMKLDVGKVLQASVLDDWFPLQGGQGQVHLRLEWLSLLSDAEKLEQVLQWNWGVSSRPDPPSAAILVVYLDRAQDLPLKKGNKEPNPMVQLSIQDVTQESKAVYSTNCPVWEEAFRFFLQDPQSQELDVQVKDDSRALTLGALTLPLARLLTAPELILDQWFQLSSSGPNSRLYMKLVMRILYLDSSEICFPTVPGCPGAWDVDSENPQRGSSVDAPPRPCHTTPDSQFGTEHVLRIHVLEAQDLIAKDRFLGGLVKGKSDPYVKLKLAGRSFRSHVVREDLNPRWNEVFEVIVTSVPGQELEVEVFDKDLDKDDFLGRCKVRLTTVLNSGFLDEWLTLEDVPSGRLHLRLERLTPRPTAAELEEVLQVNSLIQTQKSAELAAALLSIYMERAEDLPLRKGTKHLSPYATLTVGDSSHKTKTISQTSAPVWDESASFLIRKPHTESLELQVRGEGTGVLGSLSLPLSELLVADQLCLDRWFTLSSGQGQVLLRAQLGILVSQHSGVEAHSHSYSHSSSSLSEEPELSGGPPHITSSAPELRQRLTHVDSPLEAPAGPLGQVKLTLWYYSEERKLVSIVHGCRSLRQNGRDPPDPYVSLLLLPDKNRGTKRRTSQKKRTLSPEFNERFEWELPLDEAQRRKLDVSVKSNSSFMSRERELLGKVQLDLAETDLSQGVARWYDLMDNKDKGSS
# T1 sequence (P42892 whole entry): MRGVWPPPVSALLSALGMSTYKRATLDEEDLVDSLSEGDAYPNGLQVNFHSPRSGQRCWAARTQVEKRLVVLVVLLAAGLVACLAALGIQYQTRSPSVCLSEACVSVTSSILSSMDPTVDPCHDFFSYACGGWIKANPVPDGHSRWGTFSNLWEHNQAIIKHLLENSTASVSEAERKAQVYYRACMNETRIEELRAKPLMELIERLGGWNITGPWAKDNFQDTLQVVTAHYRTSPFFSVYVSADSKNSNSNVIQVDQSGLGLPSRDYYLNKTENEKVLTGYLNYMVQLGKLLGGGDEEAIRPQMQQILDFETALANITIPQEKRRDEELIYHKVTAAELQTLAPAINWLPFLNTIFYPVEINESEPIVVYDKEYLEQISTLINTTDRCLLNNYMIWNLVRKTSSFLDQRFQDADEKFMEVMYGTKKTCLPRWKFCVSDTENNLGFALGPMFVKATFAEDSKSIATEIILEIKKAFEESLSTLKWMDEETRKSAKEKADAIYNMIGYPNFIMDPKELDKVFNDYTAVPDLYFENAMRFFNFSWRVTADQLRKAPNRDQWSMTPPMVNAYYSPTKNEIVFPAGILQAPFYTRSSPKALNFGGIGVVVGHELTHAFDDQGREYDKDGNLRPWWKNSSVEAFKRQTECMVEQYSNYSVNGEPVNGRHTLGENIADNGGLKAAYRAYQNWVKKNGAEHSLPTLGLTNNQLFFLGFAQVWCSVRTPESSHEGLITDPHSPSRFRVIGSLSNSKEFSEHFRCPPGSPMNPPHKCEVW
# T7 sequence (Q9NQC3 whole entry): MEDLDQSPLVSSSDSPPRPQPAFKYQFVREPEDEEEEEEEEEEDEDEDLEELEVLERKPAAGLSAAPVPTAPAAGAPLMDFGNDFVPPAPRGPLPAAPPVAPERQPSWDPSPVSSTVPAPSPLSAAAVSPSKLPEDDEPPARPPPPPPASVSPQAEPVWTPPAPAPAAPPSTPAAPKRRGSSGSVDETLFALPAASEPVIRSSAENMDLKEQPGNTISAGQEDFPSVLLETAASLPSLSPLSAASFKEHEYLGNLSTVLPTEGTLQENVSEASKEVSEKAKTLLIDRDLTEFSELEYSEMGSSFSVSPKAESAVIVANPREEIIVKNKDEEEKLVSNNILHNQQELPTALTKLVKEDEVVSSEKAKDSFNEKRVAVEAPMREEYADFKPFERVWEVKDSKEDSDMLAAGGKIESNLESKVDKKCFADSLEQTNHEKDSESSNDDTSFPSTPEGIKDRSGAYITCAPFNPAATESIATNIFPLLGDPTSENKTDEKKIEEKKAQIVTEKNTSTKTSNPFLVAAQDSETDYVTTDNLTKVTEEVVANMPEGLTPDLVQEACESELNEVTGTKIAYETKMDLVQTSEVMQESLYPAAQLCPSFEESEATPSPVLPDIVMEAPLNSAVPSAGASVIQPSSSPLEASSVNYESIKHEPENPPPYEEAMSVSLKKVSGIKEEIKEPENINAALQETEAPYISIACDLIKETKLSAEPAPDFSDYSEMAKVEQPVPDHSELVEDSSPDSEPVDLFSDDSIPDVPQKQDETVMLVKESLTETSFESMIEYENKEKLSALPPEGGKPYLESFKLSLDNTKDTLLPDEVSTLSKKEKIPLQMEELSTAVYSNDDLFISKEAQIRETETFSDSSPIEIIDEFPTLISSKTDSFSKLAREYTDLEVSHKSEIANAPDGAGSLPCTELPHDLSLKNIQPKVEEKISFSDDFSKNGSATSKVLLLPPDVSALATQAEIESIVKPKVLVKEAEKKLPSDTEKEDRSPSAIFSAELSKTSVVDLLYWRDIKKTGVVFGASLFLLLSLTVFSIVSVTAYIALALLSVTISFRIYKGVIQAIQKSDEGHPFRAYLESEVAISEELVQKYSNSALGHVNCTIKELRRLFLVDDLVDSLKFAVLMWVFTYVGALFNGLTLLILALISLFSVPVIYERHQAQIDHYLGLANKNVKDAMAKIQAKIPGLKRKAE
# T8 sequence (Q9BYE2 whole entry): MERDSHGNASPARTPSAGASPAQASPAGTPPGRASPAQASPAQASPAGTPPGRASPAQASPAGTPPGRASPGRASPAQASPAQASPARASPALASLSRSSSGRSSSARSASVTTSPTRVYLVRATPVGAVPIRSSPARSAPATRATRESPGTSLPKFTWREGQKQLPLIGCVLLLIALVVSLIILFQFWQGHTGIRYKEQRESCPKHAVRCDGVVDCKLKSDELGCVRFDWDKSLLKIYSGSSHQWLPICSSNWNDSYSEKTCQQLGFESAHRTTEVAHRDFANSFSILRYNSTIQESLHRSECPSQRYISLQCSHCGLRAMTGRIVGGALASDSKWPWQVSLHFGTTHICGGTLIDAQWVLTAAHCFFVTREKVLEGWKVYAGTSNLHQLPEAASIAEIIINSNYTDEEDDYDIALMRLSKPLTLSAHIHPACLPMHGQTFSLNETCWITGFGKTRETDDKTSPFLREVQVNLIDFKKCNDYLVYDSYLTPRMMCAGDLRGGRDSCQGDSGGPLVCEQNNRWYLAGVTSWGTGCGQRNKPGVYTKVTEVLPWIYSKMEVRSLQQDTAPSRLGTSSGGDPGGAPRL
# T6 sequence (Q99942 whole entry): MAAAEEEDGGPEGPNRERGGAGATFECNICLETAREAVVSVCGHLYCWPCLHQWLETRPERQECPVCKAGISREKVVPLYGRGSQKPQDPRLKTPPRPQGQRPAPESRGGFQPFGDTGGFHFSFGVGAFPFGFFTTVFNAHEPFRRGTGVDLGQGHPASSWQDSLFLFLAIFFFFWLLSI
compound,measurement,setting,value
CCC(=C(c1ccccc1)c1ccc(OCCN(C)Cc2cn(CCOCCOCCOCCOCCOCCNC(=O)CCC(NC(=O)c3ccc(N(C)Cc4cnc5nc(N)nc(N)c5n4)cc3)C(=O)O)nn2)cc1)c1ccccc1 (stereo not drawn) [MTX-PEG6-tamoxifen],Recurrence (x/4),ECE1; [1],1 x/4
same,Recurrence (x/4),ECE1; [2],1 x/4
same,Recurrence (x/4),EI24,2 x/4
same,Recurrence (x/4),ESYT1; [1],1 x/4
same,Recurrence (x/4),ESYT1; [2],1 x/4
same,Recurrence (x/4),REEP4; [1],2 x/4
same,Recurrence (x/4),REEP4; [2],2 x/4
same,Recurrence (x/4),REEP6; [1],4 x/4
same,Recurrence (x/4),REEP6; [2],3 x/4
same,Recurrence (x/4),RNF5,3 x/4
same,Recurrence (x/4),RTN4; [1],1 x/4
same,Recurrence (x/4),RTN4; [2],1 x/4
same,Recurrence (x/4),TMPRSS13,1 x/4
same,Recurrence (x/4),WDR36,1 x/4
same,Recurrence (x/4),C28H10ORF35,1 x/4
same,Recurrence (x/4),FAM62A; [1],1 x/4
same,Recurrence (x/4),FAM62A; [2],1 x/4
same,Recurrence (x/4),PRSS3,1 x/4
